Data: US20220330549A1, “USE OF N-BENZYLBENZAMIDE-BASED COMPOUND AS HERBICIDE” (Northwest A&F University, priority 2020, published 2022)

Key:
Format in all cases: in vivo
[1] = test system: Humulus scandens; assay: Herbicidal activity test for indoor pre-emergence soil treatment; conditions: 150 g a.i./ha, visual inspection 21 days after treatment
Procedure, shortened: (§1)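 Compounds were formulated as 10% emulsifiable concentrates and sprayed onto the soil 24 h after sowing, at 150 g(a.i.)/ha. Soil was sandy loam (≤2% organic matter), with seeds under 0.5–2.0 cm cover, per NY/T 1155.3-2006. Visual 1–9 ratings relative to blank control were made after 21 days.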

[2] = test system: Gramineae; assay: Post-emergence herbicidal activity test in a paddy field; parameters: key: level scale; higher level = more weed left vs blank control; conditions: 150 g a.i./ha (penoxsulam control 250 g(a.i.)/h)
Procedure, shortened: (§2)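 Efficacy was visually estimated 15 and 30 days after spraying, grading weed coverage relative to an untreated neighbouring plot (level 2 = 0 to 2.5%, level 9 = 67.6 to 100%). Treatments were 150 g(a.i.)/ha from 10% emulsifiable concentrates applied at the 4-5 leaf rice stage, four repeats of 50 m^2 each.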

[3] = test system: Broadleaf weed; assay: as above; parameters: key: level scale; higher level = more weed left vs blank control; conditions: 150 g a.i./ha (penoxsulam control 250 g(a.i.)/h)
Procedure, shortened: as §2

[4] = test system: Cyperaceae; assay: as above; parameters: key: level scale; higher level = more weed left vs blank control; conditions: 150 g a.i./ha (penoxsulam control 250 g(a.i.)/h)
Procedure, shortened: as §2

[5] = test system: Piemarker; assay: Herbicidal activity test for indoor pre-emergence soil treatment; parameters: key: level 1-9; higher = more weed remaining vs blank control; conditions: 150 g a.i./ha, visual inspection 21 days after treatment
Procedure, shortened: as §1

[6] = test system: Barnyard grass; assay: as above; parameters: key: level 1-9; higher = more weed remaining vs blank control; conditions: 150 g a.i./ha, visual inspection 21 days after treatment
Procedure, shortened: as §1

[7] = test system: green bristlegrass; assay: as above; parameters: key: level 1-9; higher = more weed remaining vs blank control; conditions: 150 g a.i./ha, visual inspection 21 days after treatment
Procedure, shortened: as §1

[8] = test system: Amaranthus retroflexus; assay: as above; parameters: key: 1-9 levels; higher = more weed remaining vs blank control; conditions: 150 g a.i./ha, visual inspection 21 days after treatment
Procedure, shortened: as §1

[9] = test system: Digitaria sanguinalis; assay: as above; parameters: key: 1-9 levels; higher = more weed remaining vs blank control; conditions: 150 g a.i./ha, visual inspection 21 days after treatment
Procedure, shortened: as §1

[10] = test system: Portulaca oleracea; assay: Field test for weed control in a corn field; conditions: for Post-emergence weed control effect, Portulaca oleracea: 150 g a.i./ha, after treatment; for controlling effect on Portulaca oleracea: 150 g(a.i.)/ha, 21 days after treatments
Procedure, shortened: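 Field efficacy trial in corn following GB/T 17980.42-2000. Test compounds were prepared as 10% emulsifiable concentrates, diluted in water, and sprayed at 150 g(a.i.)/ha when corn had 2 to 5 leaves after sowing. Plots were 20 m^2 with 4 replicates per treatment. Herbicidal activity was scored on a 1-9 scale from weed damage symptoms and severity.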

[11] = test system: nutgrass flatsedge; assay: Field test for weed control in a corn field; conditions: for Post-emergence weed control effect, Nutgrass flatsedge: 150 g a.i./ha, after treatment; for controlling effect on nutgrass flatsedge: 150 g(a.i.)/ha, 21 days after treatments
Procedure, shortened: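 A corn field efficacy trial following GB/T 17980.42-2000 assessed post-emergence control of nutgrass flatsedge. Test compounds were formulated as 10% emulsifiable concentrates, diluted in water, and sprayed at 150 g(a.i.)/ha when the corn had 2 to 5 leaves. Each treatment had 4 replicates on 20 m^2 plots. Herbicidal activity was graded on a 1-9 scale by damage symptoms and severity.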

[12] = test system: Convolvulus arvensis; assay: Field test for weed control in a corn field; conditions: for Post-emergence weed control effect, Convolvulus arvensis: 150 g a.i./ha, after treatment; for controlling effect on Convolvulus arvensis: 150 g(a.i.)/ha, 21 days after treatments
Procedure, shortened: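 Field trial of weed control against Convolvulus arvensis in corn, run following GB/T 17980.42-2000. Test agents were formulated as 10% emulsifiable concentrates and sprayed in water at 150 g(a.i.)/ha when corn plants had 2 to 5 leaves. Each treatment was replicated 4 times on 20 m^2 plots, and 25% mesotrione oil dispersion served as the control agent.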

[13] = test system: Acalypha australis; assay: Field test for weed control in a corn field; conditions: for Post-emergence weed control effect, Acalypha australis: 150 g a.i./ha, after treatment; for controlling effect on Acalypha australis: 150 g(a.i.)/ha, 21 days after treatments
Procedure, shortened: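 Post-emergence field trial in a corn field following GB/T 17980.42-2000. Test compounds were formulated as 10% emulsifiable concentrates, diluted in water, and sprayed at 150 g(a.i.)/ha when corn had 2 to 5 leaves, with 4 replicates on 20 m^2 plots. Mesotrione 25% oil dispersion served as the control agent. Weed control was scored on a 1-9 scale.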

[14] = test system: goosegrass; assay: Field test for weed control in a corn field; conditions: for Post-emergence weed control effect, Goose grass: 150 g a.i./ha, after treatment; for controlling effect on goosegrass: 150 g(a.i.)/ha, 21 days after treatments
Procedure, shortened: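 Weed control efficacy against goosegrass was tested in a corn field following GB/T 17980.42-2000. Compounds formulated as 10% emulsifiable concentrates were diluted in water and sprayed post-emergence at 150 g(a.i.)/ha when corn had 2 to 5 leaves, with 4 replicates of 20 m^2 plots. Herbicidal activity was rated on a 1-9 scale by damage symptoms and severity.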

[15] = test system: Solanum nigrum; assay: Field test for weed control in a corn field; conditions: for Post-emergence weed control effect, Solanum nigrum: 150 g a.i./ha, 30 days after treatment; for controlling effect on Solanum nigrum: 150 g(a.i.)/ha, 21 days after treatments
Procedure, shortened: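 Post-emergence weed control was tested in a corn field following GB/T 17980.42-2000. Compounds were made into 10% emulsifiable concentrates, diluted in water and sprayed at 150 g(a.i.)/ha when corn had 2 to 5 leaves after sowing, in 20 m^2 plots with 4 replicates. Effects on Solanum nigrum were graded on a 1-9 scale relative to the blank control area.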

[16] = test system: Chenopodium album; assay: Field test for weed control in a corn field; conditions: for Post-emergence weed control effect, Chenopodium album: 150 g a.i./ha, after treatment; for controlling effect on Chenopodium album: 150 g(a.i.)/ha, 21 days after treatments
Procedure, shortened: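 A corn-field efficacy trial following GB/T 17980.42-2000 tested post-emergence control of Chenopodium album. Test compounds formulated as 10% emulsifiable concentrates were diluted in water and sprayed at 150 g(a.i.)/ha when the corn had 2 leaves to 5 leaves, on 20 m^2 plots with 4 replicates. Herbicidal activity was rated on a 1-9 scale by damage symptoms and severity.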

[17] = test system: Amaranthus retroflexus; assay: Field test for weed control in a corn field; conditions: for Post-emergence weed control effect, Amaranthus retroflexus: 150 g a.i./ha, 30 days after treatment; for controlling effect on Amaranthus retroflexus: 150 g(a.i.)/ha, 21 days after treatments
Procedure, shortened: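 Field efficacy trial in a corn field following GB/T 17980.42-2000. Test compounds were formulated as 10% emulsifiable concentrates, diluted in water and sprayed post-emergence when corn had 2 to 5 leaves. Each treatment covered 20 m^2 with 4 replicates. A 25% mesotrione oil dispersion served as control. Damage to Amaranthus retroflexus was rated on a 1-9 scale against untreated blank plots.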

[18] = test system: Barnyard grass; assay: Field test for weed control in a corn field; conditions: for Post-emergence weed control effect, Barnyard grass: 150 g a.i./ha, 30 days after treatment; for controlling effect on barnyard grass: 150 g(a.i.)/ha, 21 days after treatments
Procedure, shortened: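 Corn-field efficacy trial following GB/T 17980.42-2000. Test compounds were formulated as 10% emulsifiable concentrates, diluted in water and sprayed post-emergence at 150 g(a.i.)/ha when corn had 2 to 5 leaves. Each treatment was replicated 4 times on 20 m^2 plots. Barnyard grass control was rated on a 1-9 damage scale.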

[19] = test system: Digitaria sanguinalis; assay: Field test for weed control in a corn field; conditions: for Post-emergence weed control effect, Digitaria sanguinalis: 150 g a.i./ha, after treatment; for controlling effect on Digitaria sanguinalis: 150 g(a.i.)/ha, 21 days after treatments
Procedure, shortened: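 Field trial in a corn field following GB/T 17980.42-2000. Test compounds were formulated as 10% emulsifiable concentrates, diluted in water and sprayed post-emergence at 150 g(a.i.)/ha when corn had 2 to 5 leaves, with 4 replicates on 20 m^2 plots. Control of Digitaria sanguinalis was scored on a 1-9 scale based on weed damage relative to the untreated blank area.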

[20] = test system: green bristlegrass; assay: Field test for weed control in a corn field; conditions: for Post-emergence weed control effect, Green bristlegrass: 150 g a.i./ha, after treatment; for controlling effect on green bristlegrass: 150 g(a.i.)/ha, 21 days after treatments
Procedure, shortened: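 Post-emergence weed control was tested in a corn field following GB/T 17980.42-2000. When the corn had 2 leaves to 5 leaves after sowing, 10% emulsifiable concentrates diluted in water were sprayed at 150 g(a.i.)/ha on 20 m^2 plots, four replicates per treatment. Effects on green bristlegrass were scored on a 1-9 damage scale relative to the blank control area.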

[21] = test system: Piemarker; assay: Herbicidal activity test for indoor post-emergence spraying on stems and leaves; parameters: key: grade level by weed remaining vs blank control, e.g. 5 = 10.1-15%; conditions: 150 g a.i./ha, visual inspection 21 days after treatment
Procedure, shortened: (§3)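 Visual inspection at 21 days after treatment gave a level rating, each level defined as a percentage band of the weed remaining in the blank control area. Plants were sprayed on stems and leaves after emergence, following NY/T 1155.4-2006.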

[22] = test system: Humulus scandens; assay: as above; parameters: key: grade level by weed remaining vs blank control, e.g. 5 = 10.1-15%; conditions: 150 g a.i./ha, visual inspection 21 days after treatment
Procedure, shortened: as §3

[23] = test system: Amaranthus retroflexus; assay: as above; parameters: key: grade level by weed remaining vs blank control, e.g. 5 = 10.1-15%; conditions: 150 g a.i./ha, visual inspection 21 days after treatment
Procedure, shortened: as §3

[24] = test system: Barnyard grass; assay: as above; parameters: key: grade level by weed remaining vs blank control, e.g. 5 = 10.1-15%; conditions: 150 g a.i./ha, visual inspection 21 days after treatment
Procedure, shortened: as §3

[25] = test system: Digitaria sanguinalis; assay: as above; parameters: key: grade level by weed remaining vs blank control, e.g. 5 = 10.1-15%; conditions: 150 g a.i./ha, visual inspection 21 days after treatment
Procedure, shortened: as §3

[26] = test system: green bristlegrass; assay: as above; parameters: key: grade level by weed remaining vs blank control, e.g. 5 = 10.1-15%; conditions: 150 g a.i./ha, visual inspection 21 days after treatment
Procedure, shortened: as §3

SMILES | Herbicidal Activity Humulus scandens [1] | Herbicidal activity 15 days after treatment Gramineae [2] | Herbicidal activity 30 days after treatment Gramineae [2] | Herbicidal activity 15 days after treatment Broadleaf weed [3] | Herbicidal activity 30 days after treatment Broadleaf weed [3] | Herbicidal activity 15 days after treatment Cyperaceae [4] | Herbicidal activity 30 days after treatment Cyperaceae [4] | Herbicidal Activity Piemarker [5] | Herbicidal Activity Barnyard grass [6] | Herbicidal Activity Green bristlegrass [7] | Herbicidal Activity Amaranthus retroflexus [8] | Herbicidal Activity Digitaria sanguinalis [9] | Post-emergence weed control effect, Portulaca oleracea [10] | controlling effect on Portulaca oleracea [10] | Post-emergence weed control effect, Nutgrass flatsedge [11] | controlling effect on nutgrass flatsedge [11] | Post-emergence weed control effect, Convolvulus arvensis [12] | controlling effect on Convolvulus arvensis [12] | Post-emergence weed control effect, Acalypha australis [13] | controlling effect on Acalypha australis [13] | also measured
Cc1cccc(C(=O)NCc2cc(Cl)cc(Cl)c2)c1 [Compound B08] | 2 (equivalent to 0 to 2.5% of the weed in the blank control area) | 2 (equivalent to 0 to 2.5% of the weed in the blank control area) | 2 (equivalent to 0 to 2.5% of the weed in the blank control area) | 2 (equivalent to 0 to 2.5% of the weed in the blank control area) | 1 | 1 | 1 | 2 (equivalent to 0 to 2.5% of the weed in the blank control area) | 2 (equivalent to 0 to 2.5% of the weed in the blank control area) | 2 (equivalent to 0 to 2.5% of the weed in the blank control area) | 1 | 2 (equivalent to 0 to 2.5% of the weed in the blank control area) | 1 | 1 | 1 | 1 | 1 | 1 | 1 | 1 | Post-emergence weed control effect, Goose grass [14]: 1; controlling effect on goosegrass [14]: 1; Post-emergence weed control effect, Solanum nigrum [15]: 1; controlling effect on Solanum nigrum [15]: 1; Post-emergence weed control effect, Chenopodium album [16]: 1; controlling effect on Chenopodium album [16]: 1; Post-emergence weed control effect, Amaranthus retroflexus [17]: 1; controlling effect on Amaranthus retroflexus [17]: 1; Post-emergence weed control effect, Barnyard grass [18]: 1; controlling effect on barnyard grass [18]: 1; Post-emergence weed control effect, Digitaria sanguinalis [19]: 1; controlling effect on Digitaria sanguinalis [19]: 1; Post-emergence weed control effect, Green bristlegrass [20]: 1; controlling effect on green bristlegrass [20]: 1; Herbicidal Activity Piemarker [21]: 1; Herbicidal Activity Humulus scandens [22]: 1; Herbicidal Activity Amaranthus retroflexus [23]: 1; Herbicidal Activity Barnyard grass [24]: 1; Herbicidal Activity Digitaria sanguinalis [25]: 1; Herbicidal Activity Green bristlegrass [26]: 2 (equivalent to 0 to 2.5% of the weed in the blank control area)
Cc1cccc(CNC(=O)c2cccc(C)c2)c1 [Compound B14, 3-methyl-N-(3-methylbenzyl)benzamide] | 3 (equivalent to 2.6 to 5% of the weed in the blank control area) | 1 | 1 | 1 | 1 | 1 | 1 | 1 | 1 | 1 | 2 (equivalent to 0 to 2.5% of the weed in the blank control area) | 2 (equivalent to 0 to 2.5% of the weed in the blank control area) | 1 | 1 | 1 | 1 | 1 | 1 | 1 | 1 | Post-emergence weed control effect, Goose grass [14]: 1; controlling effect on goosegrass [14]: 1; Post-emergence weed control effect, Solanum nigrum [15]: 1; controlling effect on Solanum nigrum [15]: 1; Post-emergence weed control effect, Chenopodium album [16]: 1; controlling effect on Chenopodium album [16]: 1; Post-emergence weed control effect, Amaranthus retroflexus [17]: 1; controlling effect on Amaranthus retroflexus [17]: 1; Post-emergence weed control effect, Barnyard grass [18]: 1; controlling effect on barnyard grass [18]: 1; Post-emergence weed control effect, Digitaria sanguinalis [19]: 1; controlling effect on Digitaria sanguinalis [19]: 1; Post-emergence weed control effect, Green bristlegrass [20]: 1; controlling effect on green bristlegrass [20]: 1; Herbicidal Activity Piemarker [21]: 1; Herbicidal Activity Humulus scandens [22]: 1; Herbicidal Activity Amaranthus retroflexus [23]: 1; Herbicidal Activity Barnyard grass [24]: 1; Herbicidal Activity Digitaria sanguinalis [25]: 1; Herbicidal Activity Green bristlegrass [26]: 1
